Among the test systems are A549; ACHN; CCRF-CEM; COLO 205; HCT-15; IGROV-1; K562; MDA-MB-435; Malme-3M; NCI/ADR-RES; PC-3; SF-268; SK-MEL-28; SK-MEL-2; SK-MEL-5; SN12C; SNB-19; UO-31; UACC-62.
Common to all, as to experiment: NCI anticancer screen, dose series, 48 h

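Results reflect a 48-hour exposure of cells in 96-well plates to compound at five concentrations. The concentration for 50% growth inhibition is given as GI50.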 Activity calls are given as the source filed them. Rule as the data show it: active = GI50 up to about 1.1 µM and inactive = higher.

As to `COc1cc(OC)c(OC)cc1/C=C1\C=Cc2ccccc21`, the GI50 in the test on A549 is 26.5 µM (inactive); with ACHN, 27.1 µM (inactive); in the test with CCRF-CEM it was 16.3 µM (inactive); with COLO 205, 7.96 µM (inactive); in the test with HCT-15, 12.4 µM; in the test with IGROV-1, 26.9 µM (inactive). The GI50 with K562 was 5.5 µM (inactive); in the test on MDA-MB-435, 5.32 µM (inactive); in the test with Malme-3M, 23.1 µM (inactive); in the test on NCI/ADR-RES it was 17.4 µM (inactive); in the test with PC-3 it was 5.52 µM (inactive); in the test with SF-268, 17.1 µM (inactive). Also, the GI50 was 15.7 µM (inactive) with SK-MEL-28; > 10 µM (inactive) in the test with SK-MEL-2; 11.1 µM (inactive) in the test with SK-MEL-5; 18.8 µM (inactive) in the test on SN12C; > 10 µM (inactive) in the test on SNB-19; 16.3 µM (inactive) in the test on UO-31.

In the case of `COc1cccc2c1c1ccc3c(c1n2C)C(=O)C=CC3=O`, the GI50 with A549 is > 100 µM (inactive); in the test with ACHN, 15 µM (inactive); in the test with CCRF-CEM, 0.615 µM (active); in the test with COLO 205, 6.15 µM (inactive); in the test with HCT-15, 17.7 µM; in the test on IGROV-1, 25.5 µM (inactive). Besides, the GI50 with K562 was 3.61 µM (inactive); with Malme-3M, 13.9 µM (inactive); in the test on SF-268, 17.8 µM (inactive); in the test on SK-MEL-28 it was 19 µM (inactive); in the test on SK-MEL-2, 16.9 µM (inactive); in the test with SK-MEL-5, 37.8 µM (inactive). For the same compound, the GI50 in the test with SN12C was 20.3 µM (inactive); in the test on SNB-19, > 100 µM (inactive); in the test with UACC-62 it was 17.1 µM (inactive); with UO-31 it was 18.6 µM (inactive).

Consider `COc1ccc([Se][Se]c2ccc(OC)cc2OC)c(OC)c1`, for which the GI50 was 8.89 µM (inactive) in the test with A549; 2.86 µM (inactive) in the test on ACHN; 2.08 µM (inactive) with CCRF-CEM; 6.79 µM (inactive) with COLO 205; 1.84 µM in the test with HCT-15; 3.25 µM (inactive) with IGROV-1. Also, the GI50 with K562 was 2.88 µM (inactive); in the test on Malme-3M, 4.54 µM (inactive); in the test with SF-268, 2.19 µM (inactive); in the test with SK-MEL-28, 2.16 µM (inactive); with SK-MEL-2, 4.08 µM (inactive); in the test with SK-MEL-5, 7.85 µM (inactive). Moreover, the GI50 in the test on SN12C was 2 µM (inactive); with SNB-19, 3.64 µM (inactive); with UACC-62, 1.93 µM (inactive); with UO-31 it was 2.4 µM (inactive).

For `CCOc1cc2ccc3c4cc(OC)c(OC)cc4cnc3c2cc1OCC`, the GI50 was > 100 µM (inactive) with A549; > 100 µM (inactive) with ACHN; > 100 µM (inactive) with CCRF-CEM; > 100 µM (inactive) in the test on COLO 205; greater than 100 µM in the test on HCT-15; > 100 µM (inactive) with IGROV-1. Also, the GI50 in the test on K562, in the test with Malme-3M, in the test with SF-268, in the test with SK-MEL-28, in the test with SK-MEL-2 and in the test with SK-MEL-5 was > 100 µM (inactive) throughout. The GI50 with SN12C, in the test on SNB-19, in the test on UACC-62 and in the test on UO-31 was > 100 µM (inactive) in each case.

`CNC1=C(C)C(=O)C(C)=C(C(C)(C)CC(=O)n2cc(F)c(=O)[nH]c2=O)C1=O`: the GI50 in the test with A549 is 5.09 µM (inactive); with ACHN it was 38.5 µM (inactive); in the test on CCRF-CEM it was > 65.3 µM (inactive); in the test on COLO 205 it was 23.6 µM (inactive); with HCT-15 it was 19.9 µM; in the test on IGROV-1 it was 67 µM (inactive). In addition, the GI50 is 32 µM (inactive) in the test on K562; > 43.1 µM (inactive) with Malme-3M; 55.7 µM (inactive) in the test on SF-268; > 30.9 µM (inactive) with SK-MEL-28; > 63.5 µM (inactive) in the test with SK-MEL-2; 12.3 µM (inactive) in the test on SK-MEL-5. The GI50 with SN12C is 8.67 µM (inactive); in the test with SNB-19 it was > 65.8 µM (inactive); in the test on UACC-62, 45.4 µM (inactive); in the test with UO-31, 24.3 µM (inactive).

As to `C=C1CCC2C(C)(CO)C(O)CCC2(C)C1CC(O)C1=CCOC1=O` (stereo unspecified), the GI50 in the test on A549 is 55.2 µM (inactive); with ACHN it was 60.7 µM (inactive); with CCRF-CEM, 22.9 µM (inactive); in the test on COLO 205 it was 38.5 µM (inactive); in the test on HCT-15, 27.4 µM; in the test on IGROV-1, 61.1 µM (inactive). In addition, the GI50 in the test with K562 was 34.1 µM (inactive); with Malme-3M, > 100 µM (inactive); with SF-268, > 100 µM (inactive); with SK-MEL-28 it was > 100 µM (inactive); with SK-MEL-2, 53.5 µM (inactive); with SK-MEL-5, 77.1 µM (inactive). Besides, the GI50 with SN12C is 31.4 µM (inactive); in the test on SNB-19 it was > 100 µM (inactive); in the test on UACC-62 it was > 100 µM (inactive); in the test with UO-31 it was > 100 µM (inactive).

Consider `NC(=S)N/N=C1/CCCC2CCCC[C@@H]12` (stereo partly specified), for which the GI50 in the test on A549 was > 100 µM (inactive); in the test with ACHN it was > 100 µM (inactive); in the test on CCRF-CEM, > 100 µM (inactive); in the test on COLO 205, > 100 µM (inactive); in the test with HCT-15, greater than 100 µM; with IGROV-1, > 100 µM (inactive). The GI50 in the test with K562, in the test with MDA-MB-435, in the test on Malme-3M, in the test on NCI/ADR-RES, in the test with PC-3 and with SF-268 was > 100 µM (inactive) in each case. The GI50 is > 100 µM (inactive) with SK-MEL-28; > 100 µM (inactive) with SK-MEL-2; 97.3 µM (inactive) with SK-MEL-5; > 100 µM (inactive) in the test on SNB-19; > 100 µM (inactive) in the test with UACC-62; > 100 µM (inactive) in the test on UO-31.

With `C=CC[C@@]1(C#N)C[C@H](C[C@]2(C#N)C[C@H](CCl)OC(C)(C)O2)OC(C)(C)O1`, the GI50 was > 100 µM (inactive) in the test with A549; > 100 µM (inactive) in the test on ACHN; > 100 µM (inactive) in the test on CCRF-CEM; > 100 µM (inactive) in the test with COLO 205; greater than 100 µM with HCT-15; > 100 µM (inactive) with IGROV-1. Besides, the GI50 with K562 was 53 µM (inactive); with Malme-3M, > 100 µM (inactive); with SF-268, > 100 µM (inactive); in the test on SK-MEL-28 it was > 100 µM (inactive); in the test with SK-MEL-2, > 100 µM (inactive); with SK-MEL-5 it was 63.5 µM (inactive). For the same compound, the GI50 in the test on SN12C is > 100 µM (inactive); in the test with SNB-19, > 100 µM (inactive); in the test with UACC-62, > 100 µM (inactive); with UO-31 it was 43 µM (inactive).

Take `COc1cc(C(Cc2ccccc2)NC(C)=O)oc(=O)c1` (stereo unspecified): the GI50 in the test on A549 is > 100 µM (inactive); in the test with ACHN, > 100 µM (inactive); in the test with CCRF-CEM, > 100 µM (inactive); in the test on COLO 205, > 100 µM (inactive); in the test on HCT-15, greater than 100 µM; in the test on IGROV-1, > 100 µM (inactive). The GI50 was > 100 µM (inactive) in the test on K562; > 100 µM (inactive) in the test with Malme-3M; 89.1 µM (inactive) in the test on SF-268; > 100 µM (inactive) with SK-MEL-28; > 100 µM (inactive) in the test on SK-MEL-2; > 100 µM (inactive) in the test on SK-MEL-5. For the same compound, the GI50 in the test with SN12C, with SNB-19, in the test on UACC-62 and in the test on UO-31 was > 100 µM (inactive) each time.

For the compound `C/N=C(\N)c1ccc(NC(=N)c2ccc(C(=N)Nc3ccc(/C(N)=N/C)cc3)cc2)cc1`, the GI50 in the test on A549 is > 100 µM (inactive); with ACHN it was > 100 µM (inactive); in the test with CCRF-CEM it was > 100 µM (inactive); in the test with COLO 205, > 100 µM (inactive); in the test with HCT-15 it was greater than 100 µM; in the test on IGROV-1, > 100 µM (inactive). Moreover, the GI50 with K562, in the test with Malme-3M, in the test on SF-268, in the test on SK-MEL-28, in the test with SK-MEL-2 and with SK-MEL-5 was > 100 µM (inactive) each time. For the same compound, the GI50 in the test on SN12C, in the test on SNB-19, in the test with UACC-62 and with UO-31 was > 100 µM (inactive) each time.

In the case of `CC(C)N(C(=O)C12C3C4C5C3C1(C(=O)N(C(C)C)C(C)C)C5(C#N)C42)C(C)C` (stereo unspecified), the GI50 with A549 is 86.3 µM (inactive); with ACHN it was > 100 µM (inactive); in the test on CCRF-CEM it was 22 µM (inactive); with COLO 205, 40.5 µM (inactive); with HCT-15, 67.5 µM; in the test with IGROV-1 it was > 100 µM (inactive). The GI50 with K562 is 33.7 µM (inactive); in the test on Malme-3M, > 100 µM (inactive); in the test with SF-268, > 100 µM (inactive); in the test with SK-MEL-28, > 100 µM (inactive); in the test with SK-MEL-2, > 100 µM (inactive); in the test on SK-MEL-5, > 100 µM (inactive). Also, the GI50 in the test on SN12C, with SNB-19, with UACC-62 and in the test on UO-31 was > 100 µM (inactive) throughout.

Turning to `COC(=O)C(=O)C(C(=O)C(=O)Nc1ccccc1C(N)=O)c1nc2ccc(C(=O)c3ccccc3)cc2nc1O` (stereo unspecified), the GI50 was > 100 µM (inactive) in the test on A549; > 100 µM (inactive) in the test on ACHN; > 100 µM (inactive) with CCRF-CEM; > 100 µM (inactive) with COLO 205; greater than 100 µM with HCT-15; > 100 µM (inactive) in the test with IGROV-1. For the same compound, the GI50 with K562 was 42.6 µM (inactive); in the test on Malme-3M, > 100 µM (inactive); with SF-268, > 100 µM (inactive); in the test with SK-MEL-28, > 100 µM (inactive); in the test on SK-MEL-2 it was > 100 µM (inactive); with SK-MEL-5, 52.6 µM (inactive). The GI50 was > 100 µM (inactive) in the test on SN12C, > 100 µM (inactive) in the test on SNB-19, 27.6 µM (inactive) in the test with UACC-62 and 58.6 µM (inactive) in the test with UO-31.

These data come from ChEMBL document CHEMBL1201862, “PubChem BioAssay data set” (2004).
